Measurements reported in article PMC4207132 (Journal of Medicinal Chemistry, 2014).

Molecular target: pVHL:EloB:EloC (VBC) complex (Homo sapiens, UniProt P40337)
Format: binding

Sequence of pVHL:EloB:EloC (VBC) complex (Q15369 17-112): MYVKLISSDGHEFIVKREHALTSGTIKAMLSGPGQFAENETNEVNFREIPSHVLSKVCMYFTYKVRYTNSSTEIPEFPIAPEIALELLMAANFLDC
Sequence of pVHL:EloB:EloC (VBC) complex (P40337 54-213): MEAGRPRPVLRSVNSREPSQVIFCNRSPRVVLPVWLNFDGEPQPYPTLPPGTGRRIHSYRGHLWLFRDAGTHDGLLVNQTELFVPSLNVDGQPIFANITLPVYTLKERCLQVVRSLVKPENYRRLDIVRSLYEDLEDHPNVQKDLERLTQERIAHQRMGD
Sequence of pVHL:EloB:EloC (VBC) complex (Q15370 1-104, further chain): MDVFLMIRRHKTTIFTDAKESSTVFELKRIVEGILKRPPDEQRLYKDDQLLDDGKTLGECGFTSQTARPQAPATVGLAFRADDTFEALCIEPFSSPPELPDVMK

CC(=O)N[C@H](C(=O)N1C[C@H](O)C[C@H]1C(=O)NCc1ccc(-c2scnc2C)cc1)C(C)(C)C [ligand 7, (2S,4R)-1-((S)-2-Acetamido-3,3-dimethylbutanoyl)-4-hydroxy-N-(4-(4-methylthiazol-5-yl)benzyl)pyrrolidine-2-carboxamide]
increase in affinity compared to 5: ~20 fold
